Three compounds from US8481551B2, “Gyrase and topoisomerase IV inhibitors” (Vertex Pharmaceuticals Incorporated, priority 2011, dated 2013) can be followed below.

For orientation: MIC90 means an inhibitory concentration at the 90% level, which refers to growth in some studies and to a panel of isolates in others. As a reminder, the MIC is the lowest concentration found to suppress growth. For orientation: Tmax means the time at which the peak concentration occurs.

Counter-ions that a name gives are not always drawn. Like-named read-outs stand apart in the source and are kept apart here.

Data set [1] deals with Neisseria meningitidis. Put plainly: Gyrase MIC, agar dilution method (Protocol 3). In kind it is cell-based. Conditions: 12 isolates tested. For orientation: In agar dilution, organisms are placed on agar that contains the substance at set levels.
Data set [2] has as its system Moraxella catarrhalis. Put plainly: Gyrase MIC against Gram negatives, microdilution broth method (Protocol 2). In kind it is cell-based. On the technique in general: Broth dilution looks for growth in wells or tubes with falling amounts of substance.
Data set [3] deals with Neisseria gonorrhoeae. Nature of the data set: Gyrase MIC, agar dilution method (Protocol 3). In kind it is cell-based.
For data set [4], the system named is Peptostreptococcus spp. Nature of the data set: Gyrase MIC, agar dilution method (Protocol 3). The following applies: 11 isolates tested. The data set is classed as cell-based.
Data set [5] deals with Nocardia caviae. Put plainly: MIC determination procedure for Mycobacterium species (Protocol 4). In kind it is cell-based. Conditions: Nocardia otitidiscaviarum; Nocardia caviae 2497; Protocol 4; read-out: MIC.
A short description of data set [6]: Seven-day oral (gavage) toxicity and toxicokinetics study in rats. The data set is classed as in vivo, Crl:CD(SD) rats. From the text:
Crl:CD(SD) rats were obtained from Charles River Laboratories of Stone Ridge, N.Y. The animals were laboratory bred and experimentally naïve. Rats were chosen because they are a species that is commonly used for nonclinical toxicity evaluations.
Forty rats (20 noncannulated males and 20 males with jugular vein cannulas) were ordered. From these animals, 15 noncannulated males and 15 cannulated males were used. Animals were as uniform in age as possible. The rats were prepubertal to young adult, approximately 9 weeks of age at initiation of dosing. Their supplier-calculated birth date was retained in the study records. The weight range for the animals at the time of allocation to groups was 218.5-306.3 g.
Animals received the test article or vehicle by oral gavage for 7 consecutive days and were terminated the day following completion of dosing. The first day of dosing was designated as Day 1 of the study. The animals were evaluated for changes in clinical signs, body weight, and other parameters as described below.
The vehicle and test article were administered by oral gavage once daily for 7 consecutive days at a dose volume of 10 mL/kg body weight for Group A and Groups B-D, respectively. The test article and vehicle were administered by oral gavage twice daily, approximately 8 hours apart, for 7 consecutive days at a dose volume of 10 mL/kg body weight for Group E and Group F, respectively. The actual volume administered to each animal was calculated and adjusted based on the most recent body weight of each animal.
The postdosing observations made during treatment occurred at the following times based on Cmax/Tmax for the two compounds from previous studies:
Prior to start of dosing, body weights were measured for randomization on Day 1. During the treatment, body weights were measured on Day 1 and Day 7. In addition, fasted body weights were measured prior to necropsy for calculation of organ/body weight ratios.
Throughout the study, food consumption was measured daily starting 3 days prior to start of dosing.
Blood samples for evaluation of hematology, coagulation, and serum chemistry parameters were collected from all animals from the retro-orbital plexus (under CO2/O2 anesthesia, for the main study animals) or jugular vein cannula (for the toxicokinetic animals) prior to necropsy. Due to residual heparin used to keep the cannulas patent for the toxicokinetic animals, coagulation samples from these rats, were not able to be analyzed. The animals were fasted overnight prior to blood collection. On the day of blood collection for clinical pathology analyses, the animals were not necropsied until after the blood was collected and the samples judged to be acceptable by the clinical pathology group.
An appropriate amount of blood was collected in EDTA-containing tubes. The whole blood samples were analyzed for the parameters indicated below in Table 11.
An appropriate amount of blood was collected in tubes containing sodium citrate and then centrifuged to obtain plasma for the determination of prothrombin time (PT) and activated partial thromboplastin time (APTT).
An appropriate amount of blood was collected in tubes without anticoagulant. The sample was allowed to clot and then was centrifuged to obtain serum. The serum was analyzed for the parameters indicated below in Table 12.
On the 1st and 7th day of dosing, blood samples (approximately 0.5 mL/sample) were collected from the jugular vein cannula for all toxicokinetic animals at the timepoints listed below into K3EDTA-containing tubes. […] Prior to each collection, a small sample of blood (with heparin blocking solution) was removed from the cannula and discarded. A new syringe was placed on the cannula, and the protocol-required sample was taken. The syringe with the blood sample was removed, and a new syringe with saline attached to the cannula. Blood volume was replaced with an equal volume of saline and then blocking solution placed in the cannula. […]

A short description of data set [7]: Pharmacokinetics, rat oral study. The data set is classed as in vivo, Sprague Dawley rats. The following applies: male, Sprague Dawley, label = analyte; for Cmax: read-out: Cmax/C0. From the text: Pharmacokinetic Data Analysis.
Statistical Data Analysis.
Plasma concentration vs. time data was subjected to noncompartmental pharmacokinetic (PK) analysis.

Setting [8] is: Moraxella catarrhalis, 26 isolates tested.
The mark [9] stands for this setting: Neisseria gonorrhoeae, 13 isolates tested.
[10] abbreviates: male, Crl:CD(SD), rat, in vivo, po, 7 days.
Where [11] appears, read: plasma, 30 mg/kg, Compound W dosed orally 30 mg/kg in 0.5% MC.
Where [12] appears, read: plasma, 100 mg/kg, Compound W dosed orally 100 mg/kg in 0.5% MC.
Setting [13] is: plasma, 300 mg/kg, Compound W dosed orally 300 mg/kg in 0.5% MC.
Where [14] appears, read: plasma, 300 mg/kg, Compound W dosed orally 300 mg/kg in 20% CAPT, 1% HPMC-AS, 1% PVP.

As to `CCNC(=O)Nc1nc2cc(-c3cnc(C(C)(C)O)nc3)cc([C@H]3CCCO3)c2[nH]1` [Compound 13, methanesulfonic acid salt of 1-ethyl-3-[5-[2-(1-hydroxy-1-methyl-ethyl)pyrimidin-5-yl]-7-[(2R)-tetrahydrofuran-2-yl]-1H-benzimidazol-2-yl]urea], the MIC90 is 0.12 µg/mL in data set [1], 0.12 µg/mL in data set [2] (setting [8]), 1 µg/mL in data set [3] (setting [9]) and greater than 16 µg/mL in data set [4]. For the same compound, the “MIC Range” value in data set [1] is 0.015 to 0.25 µg/mL; in data set [2] (setting [8]), 0.015 to 0.12 µg/mL; in data set [3] (setting [9]), 0.5-1^ μg/ml. Moreover, the minimum inhibitory concentration (MIC) in data set [2] (ATCC25238, Moraxella catarrhalis ATCC 25238) came to 0.071 µg/mL; in data set [2] (ATCC49143, Moraxella catarrhalis ATCC 49143), 0.04 µg/mL; in data set [3] (ATCC35541, Neisseria gonorrhoeae ATCC 35541) it was 1.3 µg/mL; in data set [3] (ATCC49226, Neisseria gonorrhoeae ATCC 49226) it was 2.3 µg/mL; in data set [5] it was 2 µg/mL. In addition, the Mean food consumption result in data set [6] (Compound 13 once daily 100 or 200 mg/kg, Compound 23A twice daily 300 mg/kg, not considered adverse) is given as “reduced during different intervals of the study”. In data set [6] (Crl:CD(SD), rat, in vivo, male rats, 200 mg/kg once a day for 7 days, oral gavage), this compound registered an AUC at 7 day of 844000 ng·h/mL. Also, the “adverse observations / mean body weight” value in data set [6] (male rats, 7 days oral gavage) is on record as “No adverse observations or effects on mean body weight”. Further, the histopathological findings result in data set [6] (male rats, any dose regimen) is on record as “No test article-related histopathological findings”. In data set [6] (male rats, toxicokinetics), the “exposures for different dosage levels” value is listed as “dose related”. Further, the “NOEL (No-Observable-Effect-Level)” value in data set [6] (setting [10]) was 200 mg/kg. For the same compound, the “dose levels without adverse toxicity” value in data set [6] (setting [10]) is listed as “up to 200 mg/kg/day”.
Consider `CCNC(=O)Nc1nc2cc(-c3cnc(C(C)(C)O)nc3)c(F)c([C@H]3CCCO3)c2[nH]1` [Compound 23, 1-ethyl-3-[6-fluoro-5-[2-(1-hydroxy-1-methyl-ethyl)pyrimidin-5-yl]-7-[(2R)-tetrahydrofuran-2-yl]-1H-benzimidazol-2-yl]urea], for which the AUC was 311 ng·h/mL in data set [7] (in vivo, 3 mg/kg, rat plasma, Compound W dosed orally 3 mg/kg in 0.5% MC, read-out: AUC); 22500 ng·h/mL in data set [7] (in vivo, 30 mg/kg, rat plasma, Compound W dosed orally 30 mg/kg in 0.5% MC, read-out: AUC); 77100 ng·h/mL in data set [7] (in vivo, 100 mg/kg, rat plasma, Compound W dosed orally 100 mg/kg in 0.5% MC, read-out: AUC); 223000 ng·h/mL in data set [7] (in vivo, 300 mg/kg, rat plasma, Compound W dosed orally 300 mg/kg in 0.5% MC, read-out: AUC); 295000 ng·h/mL in data set [7] (in vivo, 300 mg/kg, rat plasma, Compound W dosed orally 300 mg/kg in 20% CAPT, 1% HPMC-AS, 1% PVP, read-out: AUC); 314 ng·h/mL in data set [7] (plasma, 3 mg/kg, Compound W dosed orally 3 mg/kg in 0.5% MC, read-out: AUCextrap). Further, the AUC in data set [7] (plasma, 30 mg/kg, Compound W dosed orally 30 mg/kg in 0.5% MC, read-out: AUCextrap) stood at 22600 ng·h/mL; in data set [7] (plasma, 100 mg/kg, Compound W dosed orally 100 mg/kg in 0.5% MC, read-out: AUCextrap), 77400 ng·h/mL. In addition, the Cmax was found to be 117 ng/mL in data set [7] (in vivo, 3 mg/kg, rat plasma, Compound W dosed orally 3 mg/kg in 0.5% MC); 2900 ng/mL in data set [7] (in vivo, 30 mg/kg, rat plasma, Compound W dosed orally 30 mg/kg in 0.5% MC); 6600 ng/mL in data set [7] (in vivo, 100 mg/kg, rat plasma, Compound W dosed orally 100 mg/kg in 0.5% MC); 11700 ng/mL in data set [7] (in vivo, 300 mg/kg, rat plasma, Compound W dosed orally 300 mg/kg in 0.5% MC); 16200 ng/mL in data set [7] (in vivo, 300 mg/kg, rat plasma, Compound W dosed orally 300 mg/kg in 20% CAPT, 1% HPMC-AS, 1% PVP).
Consider `CCNC(=O)Nc1nc2cc(-c3cnc(C(C)(C)OP(=O)([O-])[O-])nc3)c(F)c([C@H]3CCCO3)c2[nH]1.[Na+].[Na+]` [Compound W, disodium (R)-2-(5-(2-(3-ethylureido)-6-fluoro-7-(tetrahydrofuran-2-yl)-1H-benzo[d]imidazol-5-yl)pyrimidin-2-yl)propan-2-yl phosphate], for which the time to peak (Tmax) in data set [7] (setting [11]) amounted to 3.3 h; in data set [7] (setting [12]) it was 0.8 h; in data set [7] (setting [13]), 1.2 h; in data set [7] (setting [14]), 1.8 h. The AUC was found to be 178 ng·h/mL in data set [7] (plasma, 30 mg/kg, Compound W dosed orally 30 mg/kg in 0.5% MC, read-out: AUC); 61 ng·h/mL in data set [7] (plasma, 100 mg/kg, Compound W dosed orally 100 mg/kg in 0.5% MC, read-out: AUC); 324 ng·h/mL in data set [7] (plasma, 300 mg/kg, Compound W dosed orally 300 mg/kg in 0.5% MC, read-out: AUC); 2370 ng·h/mL in data set [7] (plasma, 300 mg/kg, Compound W dosed orally 300 mg/kg in 20% CAPT, 1% HPMC-AS, 1% PVP, read-out: AUC). Further, the Cmax in data set [7] (setting [11]) turned out to be 22 ng/mL; in data set [7] (setting [12]), 21 ng/mL; in data set [7] (setting [13]), 2330 ng/mL; in data set [7] (setting [14]) it was 600 ng/mL.
